Measurements taken from publication PMC4684281, “Antitumor Effects and Mechanism of Novel Emodin Rhamnoside Derivatives against Human Cancer Cells In Vitro” (PLoS ONE, 2015).
Values joined by “and” are separate entries in the source; they are usually repeats but may differ in a detail not shown here. Equal values may be shown once.

What was measured:
HUVEC = experiment: MTT cell viability assay, HUVEC; format: cell-based; details: Homo sapiens, MTT at 72h, n=3, mean±S.E.M, read-out: IC50 for EM-d-Rha, HUVEC
Protocol: (§1) The viability of cancer cells was evaluated by MTT assay. Briefly, cells were inoculated in 96-well culture plates at the density of 1×10^4/well with complete medium containing 10% fetal calf serum in a final volume of 0.2 mL. Cells were incubated at 37°C for at least 24 hours to allow optimal attachment. When the cells reached 60% confluence, they were treated with Cisplatin, HCPT and emodin rhamnopyranosides derivatives in various concentrations, and incubated in a humidity-controlled 5%CO2 incubator at 37°C for 72 hours. Medium were exchanged once every 24 hours. Cell control group and blank group were set up in the same manner, with each group having six parallel wells. Cell survival was assessed by directly adding 22 μL of 5mg/mL MTT to 0.2 mL medium. After three hours, the formazan precipitate was dissolved in 200μL isopropanol per well, and completely mixed under room temperature. Afterwards, the optical density of each well was detected at 570 nm wavelength by iMark microplate reader (Bio-rad,USA). This experiment was repeated at least three times.

L02 normal liver cells = experiment: MTT cell viability assay, L02; format: cell-based; details: Homo sapiens; MTT at 72h, n=3, mean±S.E.M; read-out: IC50 for EM-d-Rha, L02
Protocol: as §1

K562 cells = experiment: MTT cell viability assay, K562; format: cell-based; details: Homo sapiens
Protocol: as §1

HepG2 cells [1] = experiment: Flow cytometry apoptosis analysis (Annexin V/7-AAD), HepG2; format: cell-based, Human; details: 48h (Fig 7 legend: 72h); for Early apoptosis: control 6.16±2.20; for Late apoptosis: control 10.71±1.42; for Living cell: control 79.87±1.84
Protocol: Flow cytometry analysis was determined using Annexin V-APC/7-AAD Apoptosis Detection Kit (BD Parmagen, U.S.A). HepG2 cells were inoculated at a density of 3×10^5/well in 6-well plates, and allowed to attach at 37°C for 24 hours. Afterwards, cells were treated with specific concentration EM-d-Rha, and cultured and harvested as described previously. Cells of each sample were resuspended in […] cold binding buffer before adding 2.5μL Annexin V-APC conjugate and 5μL 7-AAD solution. Then cells were incubated for 15 min on ice in the dark. Cell suspension was diluted to a final volume of 250μL with ice-cold, 1× Annexin V Binding Buffer. The assay was conducted by flow cytometry (BD FACSCalibur,USA). Scatter plots were generated using Cell Quest pro software (BD Biosciences, San Jose, CA). The experiment was repeated three times.

[2] = test system: HepG2 mitochondrial membrane potential (ΔΨm); experiment: Mitochondrial membrane potential (Rhodamine123, flow cytometry); format: cell-based, Human; details: HepG2, 5.0μM
Protocol: HepG2 cells were inoculated in 10cm diameter culture plates at a density of 5×10^5 cells, and allowed to attach at 37°C for 24 hours. Afterwards, cells were treated with 5.0μM EM-d-Rha for 0, 24h, 48h and 72h respectively. Cells were incubated in a humidified incubator supplied with 5% CO2 at 37°C for 72 hours. Medium were exchanged once every 24 hours. The harvested cells of each sample were suspended in 500μL PBS before adding 5 μL Rhodamine123. Then samples were incubated at 37°C in the dark for 15 min. Cells were again collected by centrifugation at 300×g for 5 minutes and the supernatant was discarded. The cell pellets were washed twice with 4°C PBS. Finally cells of all samples were resuspended in 500μL PBS. Before performing assay, adjusting excitation wavelength and emission wavelength to 480nm, 520nm respectively, the ΔΨm changes of HepG2 mitochondrial were measured with a flow cytometer (BD FACSCalibur, BD Biosciences, US). The experiment was repeated at least three times.

HepG2 cells [3] = experiment: Morphological analysis (bright-field microscopy); format: cell-based, Human; details: HepG2, 0.1-62.5μM, 48 h, dose dependent
Protocol: For morphological observation, HepG2 cells in logarithmic growth phase were seeded in a 96-well plate at the density of 1×10^4/well with 0.2 mL complete medium containing 10% fetal calf serum. Cells were allowed to attach at 37°C for 24 hours. Then cells were treated with EM-d-Rha and HCPT at a specific concentration. Each group has six parallel wells. […] Medium were exchanged once every 24 hours.

HepG2 cells [4] = experiment: Fluorescence microscopy assay (Hoechst 33342); format: cell-based, Human; details: HepG2, varying concentrations (0.1μM; 0.5μM; 2.5μM), 48h, dosage-dependent
Protocol: HepG2 cells were inoculated in duplicate at 3×10^5/well density in 6-well plate, and allowed to attach at 37°C for 24 hours. Afterwards, cells were treated with 10 μM HCPT, 25 μM emodin and specific concentration EM-d-Rha (0.1μM, 0.5μM, 2.5μM), respectively. Cell control group was set in the same way. […] Medium were exchanged as described previously. In the end, all medium were discarded and cells were digested with 2mL 0.25% Trypsin-EDTA solution at 37°C for 5 min. After cells were harvested, cells were washed with PBS twice followed by centrifuging at 300×g for 5 minutes. Finally, cells were re-suspended in 100μL cold PBS after the supernatant was discarded. Cells were cultured in the dark for 10 minutes at room temperature after adding 100μL 1mg/mL Hoechst 33342 staining solution. Cells were harvested again as described previously to discard the staining solution. Wash the harvested cells twice with PBS before applying to the clean glass slides. The morphological changes of cells nuclei were observed and photographed under the fluorescence microscope (Olympus, Japan) at 350 nm excitation wavelength. The experiment was repeated three times.

HepG2 cells [5] = experiment: DNA ladder assay; format: cell-based, Human; details: HepG2, 2.5μM, 5.0μM and 10.0μM
Protocol: DNA ladder formation is an important criterion to determine cells apoptosis. To confirm the apoptosis induction effect, the analysis of DNA fragmentation was conducted. HepG2 cells in logarithmic growth phase were inoculated in 10cm diameter culture plates at a density of 5×10^5 cells with 12 mL complete medium containing 10% fetal calf serum, and allowed to attach at 37°C for 24 hours. Afterwards, cells were treated with EM-d-Rha and Cisplatin at a specific concentration. Cells were cultured and harvested as described previously. Finally, DNA of all samples was extracted using the apoptosis DNA ladder detection kit following the manufacturer’s instructions. The DNA fragmentation was assayed by electrophoresis on a 1.5% agarose gel containing […] ethidium bromide (EtBr) at 5V/cm for 2.5hours and photographed under ultraviolet. The size of the DNA fragmentation was compared with the marker (molecular weight standard).

[6] = HepG2, 10μM, listed as EM-d-Rha

With `CC(=O)O[C@@H]1[C@@H](O[C@@H]2O[C@@H](C)[C@H](O)[C@@H](OC(C)=O)[C@H]2OC(C)=O)[C@H](C)O[C@@H](Oc2cc(O)c3c(c2)C(=O)c2cc(C)cc(O)c2C3=O)[C@@H]1OC(C)=O` [S-8, 3-(2”,3”-Di-O-acetyl-α-L-rhamnopyranosyl-(1→4)-2’,3’-di-O-acetyl-α-L-rhamnopyranosyl)-emodin] the IC50 (HUVEC) was 18.7 ± 3.9 µM, the IC50 (L02 normal liver cells) was 19.7 ± 1.7 µM and the IC50 (K562 cells; K562, MTT at 72h, n=3, mean±S.E.M, read-out: IC50 for EM-d-Rha, K562) was 2.8 ± 0.11 µM. For the same compound, the inhibition at 0.1 µM (K562 cells; K562, 0.1μM, MTT 72h, read-out: The inhibition rate of EM-d-Rha) was 0%, the inhibition at 0.5 µM (K562 cells; K562, 0.5μM, MTT 72h, read-out: The inhibition rate of EM-d-Rha) was 15.1 ± 1.13% and the inhibition at 2.5 µM (K562 cells; K562, 2.5μM, MTT 72h, read-out: The inhibition rate of EM-d-Rha) was 45.86 ± 0.11%. The inhibition at 12.5 µM (K562 cells; K562, 12.5μM, MTT 72h, read-out: The inhibition rate of EM-d-Rha) was 78.74 ± 0.01%, the inhibition at 62.5 µM (K562 cells; K562, 62.5μM, MTT 72h, read-out: The inhibition rate of EM-d-Rha) was 80.64 ± 0.03% and the Early apoptosis (HepG2 cells [1]; HepG2, 2.5μM) was 40.40±5.70 %. The Late apoptosis (HepG2 cells [1]; HepG2, 2.5μM) was 7.50±1.04%, the Living cell (HepG2 cells [1]; HepG2, 2.5μM) was 51.20±5.10 % and the Early apoptosis (HepG2 cells [1]; HepG2, 5μM) was 45.20±4.17 %. For the same compound, the Late apoptosis (HepG2 cells [1]; HepG2, 5μM) was 17.53±3.16%, the Living cell (HepG2 cells [1]; HepG2, 5μM) was 36.40±3.23 % and the Early apoptosis (HepG2 cells [1]; [6]) was 78.77% and 78.77±1.22 %. The Late apoptosis (HepG2 cells [1]; HepG2, 10μM) was 4.22±1.63%, the Living cell (HepG2 cells [1]; [6]) was 16.53% and 16.53±0.68 % and the “Percentage of ΔΨm (Vs. control group)” value ([2]; 24 h) was 82.22±5.97 %. The “Percentage of ΔΨm (Vs. control group)” value ([2]; 48 h) was 53.21±9.71 %, the “Percentage of ΔΨm (Vs. control group)” value ([2]; 72 h, listed as EM-d-Rha) was 31.77±2.84% and the “Cell morphology (bright-field)” value (HepG2 cells [3]) was “morphological changes of apoptosis such as reduction in cell volume and losing cell-cell contacts”. The “Nuclear morphology, Hoechst 33342” value (HepG2 cells [4]) was “nuclear shrinkage and DNA condensation” and the “DNA fragmentation (agarose gel electrophoresis)” value (HepG2 cells [5]) was “typical ladder or fragmentation shape”.
